# In BindingDB's records for doi:10.1021/acs.jmedchem.0c01153 (Tokyo Medical and Dental University (Tmdu), 2021):
# Legend:
# [1] = Inhibition of HIV1 KP-5mvcR gp120 interaction with CD4 in human TZM-bl cells assessed as decrease in viral entry by MTT assay
# [2] = Inhibition of HIV1 KP-5mp1 gp120 interaction with CD4 human TZM-bl cells assessed as decrease in viral entry by MTT assay
IC50 [1] [nM],IC50 [2] [nM],Compound
720,43000,N=C(N)NCCCCCCCCCCC(=O)NCCN1CCC(NC(=O)C(=O)Nc2ccc(Cl)cc2)CC12CCCCC2 (stereo not given)
120,2100,N=C(N)NCCCCC(=O)NCCN1CCC(NC(=O)C(=O)Nc2ccc(Cl)cc2)CC12CCCCC2 (stereo not given)
290,3900,N=C(N)NCCCC[C@H](NC(=N)N)C(=O)NCCN1CCC(NC(=O)C(=O)Nc2ccc(Cl)cc2)CC12CCCCC2 (stereo not given in full)
230,4400,N=C(N)NCC(=O)NCCCC[C@H](NC(=N)N)C(=O)NCCN1CCC(NC(=O)C(=O)Nc2ccc(Cl)cc2)CC12CCCCC2 (stereo not given in full)
330,13000,N=C(N)NCCCCC(=O)NCCCC[C@H](NC(=N)N)C(=O)NCCN1CCC(NC(=O)C(=O)Nc2ccc(Cl)cc2)CC12CCCCC2 (stereo not given in full)
420,2900,N=C(N)NCCCCCCCC(=O)NCCCC[C@H](NC(=N)N)C(=O)NCCN1CCC(NC(=O)C(=O)Nc2ccc(Cl)cc2)CC12CCCCC2 (stereo not given in full)
880,4800,N=C(N)NCCCCCCCCCCC(=O)NCCCC[C@H](NC(=N)N)C(=O)NCCN1CCC(NC(=O)C(=O)Nc2ccc(Cl)cc2)CC12CCCCC2 (stereo not given in full)
3400,–,CCCCCCCCCCCCCCCCNC(=O)CCC(=O)OC(CCCNS(=O)(=O)c1ccc([N+](=O)[O-])cc1)C(=O)NCCN1CCC(NC(=O)C(=O)Nc2ccc(Cl)cc2)CC12CCCCC2 (stereo not given)
570,–,COCCOCCOCCOCCOCCNC(=O)CCC(=O)OC(CCCNS(=O)(=O)c1ccc([N+](=O)[O-])cc1)C(=O)NCCN1CCC(NC(=O)C(=O)Nc2ccc(Cl)cc2)CC12CCCCC2 (stereo not given)
250,–,CCCCCCCCCCCCCCCCNC(=O)CCC(=O)OC(CCCN)C(=O)NCCN1CCC(NC(=O)C(=O)Nc2ccc(Cl)cc2)CC12CCCCC2 (stereo not given)
46,–,COCCOCCOCCOCCOCCNC(=O)CCC(=O)OC(CCCN)C(=O)NCCN1CCC(NC(=O)C(=O)Nc2ccc(Cl)cc2)CC12CCCCC2 (stereo not given)
1200,–,CCCCCCCCCCCCCCCCNC(=O)CCC(=O)OC(CCCNC(=N)N)C(=O)NCCN1CCC(NC(=O)C(=O)Nc2ccc(Cl)cc2)CC12CCCCC2 (stereo not given)
17,–,COCCOCCOCCOCCOCCNC(=O)CCC(=O)OC(CCCNC(=N)N)C(=O)NCCN1CCC(NC(=O)C(=O)Nc2ccc(Cl)cc2)CC12CCCCC2 (stereo not given)
130,–,COCCOCCOCCOCCOCCNC(=O)CCC(=O)N[C@@H](CCCNC(=N)N)C(=O)NCCN1CCC(NC(=O)C(=O)Nc2ccc(Cl)cc2)CC12CCCCC2 (stereo not given in full)
< 100,–,COCCOCCOCCOCCOCCOCCOCCOCCOCCOCCOCCOCCNC(=O)CCC(=O)N[C@@H](CCCNC(=N)N)C(=O)NCCN1CCC(NC(=O)C(=O)Nc2ccc(Cl)cc2)CC12CCCCC2 (stereo not given in full)
< 100,–,COCCOCCOCCOCCOCCOCCOCCOCCOCCOCCOCCOCCOCCOCCOCCOCCOCCOCCOCCOCCOCCOCCOCCOCCNC(=O)CCC(=O)N[C@@H](CCCNC(=N)N)C(=O)NCCN1CCC(NC(=O)C(=O)Nc2ccc(Cl)cc2)CC12CCCCC2 (stereo not given in full)
–,> 100000,N=C(N)NCCCCCCCC(=O)NCCN1CCC(NC(=O)C(=O)Nc2ccc(Cl)cc2)CC12CCCCC2 (stereo not given)
–,6900,"CC1(C)CC(NC(=O)C(=O)Nc2ccc(Cl)cc2)CC(C)(C)N1 [N-(4-chlorophenyl)-N'-(2,2,6,6-tetramethylpiperidin-4-yl)-oxalamide]"
